Assay results published in ChEMBL document CHEMBL1132414, “New bicyclam-AZT conjugates: design, synthesis, anti-HIV evaluation, and their interaction with CXCR-4 coreceptor” (J Med Chem, 1999).

Key:
physchem = settings: octanol/water
Description: Partition coefficient (logP)

in vitro = settings: human, uninfected MT-4 cells
Description: Concentration required to cause 50% death of uninfected MT-4 cells

[1] = system: Human immunodeficiency virus 1; test: microbe, parasite or virus in culture; settings: Human immunodeficiency virus 1, MT4
Description: Concentration required to inhibit syncytia formation by 50% on HIV-1 infected MT-4 cells

[2] = octanol/water
Description: Partition coefficient (logP)

Row | Structure (SMILES) | logP (physchem) | EC50 [1] | logP [2] | CC50 (in vitro)
1 | Cc1cn(C2CC(N=[N+]=[N-])C(COC(=O)CCCCN3CCCN(C(=O)CCCC(=O)N4CCCN(C(=O)OC(C)(C)C)CCN(C(=O)OC(C)(C)C)CCCN(C(=O)OC(C)(C)C)CC4)CCN(C(=O)OC(C)(C)C)CCCN(C(=O)OC(C)(C)C)CC3)O2)c(=O)[nH]c1=O (stereo not given) | 5.85 | 0.05 µM |  | 5 µM
2 | CC(C)(C)OC(=O)N1CCCN(C(=O)OC(C)(C)C)CCN(C(=O)OC(C)(C)C)CCCN(Cc2ccc(CN3CCCN(C(=O)OC(C)(C)C)CCN(C(=O)OC(C)(C)C)CCCN(C(=O)OC(C)(C)C)CC3)cc2)CC1 | 6.47 | 0.5 µM |  | 5 µM
3 | Cc1cn(C2CC(N=[N+]=[N-])C(COC(=O)CCCCN3CCCN(Cc4ccc(CN5CCCN(C(=O)OC(C)(C)C)CCN(C(=O)OC(C)(C)C)CCCN(C(=O)OC(C)(C)C)CC5)cc4)CCN(C(=O)OC(C)(C)C)CCCN(C(=O)OC(C)(C)C)CC3)O2)c(=O)[nH]c1=O (stereo not given) | 5.7 | 0.005 µM |  | 5 µM
4 | Cc1cn(C2CC(N=[N+]=[N-])C(COC(=O)CCCCN3CCCN(C(=O)CCCC(=O)N4CCCNCCNCCCNCC4)CCNCCCNCC3)O2)c(=O)[nH]c1=O (stereo not given) | 1.81 | 0.05 µM |  | 75 µM
5 | Cc1cn(C2CC(N=[N+]=[N-])C(COC(=O)CCCCN3CCCN(Cc4ccc(CN5CCCNCCNCCCNCC5)cc4)CCNCCCNCC3)O2)c(=O)[nH]c1=O (stereo not given) | 1.65 | 0.005 µM |  | 75 µM
6 | Cc1cn(C2CC(N=[N+]=[N-])C(COC(=O)CCCCN3CCCNCCNCCCNCC3)O2)c(=O)[nH]c1=O (stereo not given) | -0.21 | 0.01 µM |  | 30 µM
7 | c1cc(CN2CCCNCCNCCCNCC2)ccc1CN1CCCNCCNCCCNCC1 [PLERIXAFOR] |  | 10 µM | 0.89 | 50 µM

Further lines, with some results ahead:

Row | logP (physchem) | EC50 [1] | logP [2] | Structure (SMILES) | CC50 (in vitro)
8 | 6.14 | > 50 µM |  | CC(C)(C)OC(=O)N1CCCN(C(=O)OC(C)(C)C)CCN(C(=O)OC(C)(C)C)CCCN(C(=O)CCCC(=O)N2CCCN(C(=O)OC(C)(C)C)CCN(C(=O)OC(C)(C)C)CCCN(C(=O)OC(C)(C)C)CC2)CC1 | 10 µM
9 | 1.05 | 10 µM |  | O=C(CCCC(=O)N1CCCNCCNCCCNCC1)N1CCCNCCNCCCNCC1 | 50 µM
10 | -1.35 | 0.01 µM |  | Cc1cn(C2CC(N=[N+]=[N-])C(COC(=O)CCCCN3CCCN(C(=O)c4ccc(C(=O)N5CCCNCCNCCCNCC5)cc4)CCNCCCNCC3)O2)c(=O)[nH]c1=O (stereo not given) | 75 µM
11 | 2.69 | 0.03 µM |  | Cc1cn(C2CC(N=[N+]=[N-])C(COC(=O)CCCCN3CCCN(C(=O)c4ccc(C(=O)N5CCCN(C(=O)OC(C)(C)C)CCN(C(=O)OC(C)(C)C)CCCN(C(=O)OC(C)(C)C)CC5)cc4)CCN(C(=O)OC(C)(C)C)CCCN(C(=O)OC(C)(C)C)CC3)O2)c(=O)[nH]c1=O (stereo not given) | 0.5 µM
12 | 3.46 | 1 µM |  | CC(C)(C)OC(=O)N1CCCN(C(=O)OC(C)(C)C)CCN(C(=O)c2ccc(C(=O)N3CCCN(C(=O)OC(C)(C)C)CCN(C(=O)OC(C)(C)C)CCCN(C(=O)OC(C)(C)C)CC3)cc2)CCCN(C(=O)OC(C)(C)C)CC1 | 10 µM
13 | 0.14 | 0.01 µM |  | Cc1cn(C2CC(N=[N+]=[N-])C(COC(=O)CCCC(=O)N3CCCNCCNCCCNCC3)O2)c(=O)[nH]c1=O (stereo not given) | 100 µM
14 | 2.68 | 0.05 µM |  | Cc1cn(C2CC(N=[N+]=[N-])C(COC(=O)CCCC(=O)N3CCCN(C(=O)OC(C)(C)C)CCN(C(=O)OC(C)(C)C)CCCN(C(=O)OC(C)(C)C)CC3)O2)c(=O)[nH]c1=O (stereo not given) | 50 µM
15 | -2.11 | 50 µM |  | O=C(c1ccc(C(=O)N2CCCNCCNCCCNCC2)cc1)N1CCCNCCNCCCNCC1 | 100 µM
